Measured values reported in the supplement of paper PMC11451515.

Tested on: NOMO1
Assay: cell viability relative to DMSO control; higher = less cytotoxic
Settings: 48 h
In short: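 In 1536-well plates, 5 μl of leukemia cells were seeded per well: 500 cells/well for NOMO1 or SEM and 1000 cells/well for P12-Ichikawa. Each line had first been adapted for at least four passages in each medium. Library compounds in DMSO were pin-dosed at 11 threefold concentrations between 47 μM and 0.79 nM, and CellTiter-Glo One luminescence was read after 48 h at 37°C. Viability is a per-plate percentage relative to DMSO wells, with cell-free wells as background.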

[1] = HPLM + 10% dialyzed FBS, 0.000781 µM
[2] = HPLM + 10% dialyzed FBS, 0.00234 µM
[3] = HPLM + 10% dialyzed FBS, 0.00702 µM
[4] = HPLM + 10% dialyzed FBS, 0.0211 µM
[5] = HPLM + 10% dialyzed FBS, 0.0632 µM
[6] = HPLM + 10% dialyzed FBS, 0.19 µM
[7] = HPLM + 10% dialyzed FBS, 0.569 µM
[8] = HPLM + 10% dialyzed FBS, 1.71 µM
[9] = HPLM + 10% dialyzed FBS, 5.12 µM
[10] = HPLM + 10% dialyzed FBS, 15.4 µM
[11] = HPLM + 10% dialyzed FBS, 46.1 µM
[12] = RPMI 5 mM glucose + 10% FBS, 0.000781 µM
[13] = RPMI 5 mM glucose + 10% FBS, 0.00234 µM
[14] = RPMI 5 mM glucose + 10% FBS, 0.00702 µM
[15] = RPMI 5 mM glucose + 10% FBS, 0.0211 µM
[16] = RPMI 5 mM glucose + 10% FBS, 0.0632 µM
[17] = RPMI 5 mM glucose + 10% FBS, 0.19 µM
[18] = RPMI 5 mM glucose + 10% FBS, 0.569 µM
[19] = RPMI 5 mM glucose + 10% FBS, 1.71 µM
[20] = RPMI 5 mM glucose + 10% FBS, 5.12 µM
[21] = RPMI 5 mM glucose + 10% FBS, 15.4 µM
[22] = RPMI 5 mM glucose + 10% FBS, 46.1 µM
[23] = RPMI 5 mM glucose + 10% dialyzed FBS, 0.000781 µM
[24] = RPMI 5 mM glucose + 10% dialyzed FBS, 0.00234 µM
[25] = RPMI 5 mM glucose + 10% dialyzed FBS, 0.00702 µM
[26] = RPMI 5 mM glucose + 10% dialyzed FBS, 0.0211 µM
[27] = RPMI 5 mM glucose + 10% dialyzed FBS, 0.0632 µM
[28] = RPMI 5 mM glucose + 10% dialyzed FBS, 0.19 µM
[29] = RPMI 5 mM glucose + 10% dialyzed FBS, 0.569 µM
[30] = RPMI 5 mM glucose + 10% dialyzed FBS, 1.71 µM
[31] = RPMI 5 mM glucose + 10% dialyzed FBS, 5.12 µM
[32] = RPMI 5 mM glucose + 10% dialyzed FBS, 15.4 µM
[33] = RPMI 5 mM glucose + 10% dialyzed FBS, 46.1 µM

SMILES | cell viability [1] | cell viability [2] | cell viability [3] | cell viability [4] | cell viability [5] | cell viability [6] | cell viability [7] | cell viability [8] | cell viability [9] | cell viability [10] | cell viability [11] | cell viability [12] | cell viability [13] | cell viability [14] | cell viability [15] | cell viability [16] | cell viability [17] | cell viability [18] | cell viability [19] | cell viability [20] | cell viability [21] | cell viability [22] | cell viability [23] | cell viability [24] | cell viability [25] | cell viability [26] | cell viability [27] | cell viability [28] | cell viability [29] | cell viability [30] | cell viability [31] | cell viability [32] | cell viability [33]
CCC[S+]([O-])c1ccc2[nH]c(NC(=O)OC)nc2c1 (centres undefined) | 102% | 81.8% | 100% | 106% | 98.5% | 109% | 95% | 79.5% | 93.5% | 72.2% | 18.7% | 88.2% | 96.6% | 94.2% | 103% | 101% | 89.9% | 101% | 82% | 93.8% | 71.2% | 15.5% | 94.5% | 91.3% | 94.7% | 87.4% | 84.9% | 88.8% | 81.7% | 76.4% | 81.2% | 58.4% | 19.4%
CCOC(=O)c1ccc(OC(=O)CCCCCNC(=N)N)cc1 | 126% | 115% | 122% | 116% | 137% | 128% | 127% | 84.6% | 91.8% | 62.4% | 55% | 117% | 119% | 124% | 114% | 131% | 128% | 114% | 132% | 77.3% | 83% | 104% | 116% | 110% | 135% | 134% | 114% | 142% | 137% | 154% | 85.7% | 81.8% | 91.2%
O=C1NC(=O)/C(=C/c2ccc3nccc(-c4ccncc4)c3c2)S1 | 129% | 96.8% | 124% | 97.8% | 89.6% | 85.4% | 55.6% | 50.8% | 33.8% | 26% | 14.7% | 115% | 99.6% | 107% | 113% | 101% | 92.9% | 84.1% | 66.7% | 36.8% | 29.1% | 16% | 107% | 115% | 92% | 97.3% | 88% | 63.2% | 61% | 55.9% | 34.7% | 27.2% | 13.6%
C[C@]12CC[C@@H]3c4ccc(O)cc4CC[C@H]3[C@@H]1[C@@H](O)[C@@H](O)[C@@H]2O | 117% | 121% | 124% | 123% | 121% | 127% | 116% | 128% | 103% | 110% | 102% |  |  |  |  |  |  |  |  |  |  |  | 106% | 138% | 118% | 142% | 140% | 141% | 131% | 134% | 150% | 128% | 130%
Cn1cnc2c(F)c(Nc3ccc(Br)cc3F)c(C(=O)NOCCO)cc21 | 91.4% | 83.3% | 95.9% | 27.1% | 62.4% | 56.4% | 57.7% | 41.4% | 34.3% | 40% | 35.3% | 83.3% | 80.2% | 82.4% | 16.4% | 75.5% | 66.2% | 50.2% | 42.6% | 37.5% | 31.2% | 36.5% | 77.1% | 90.2% | 98.7% | 37.9% | 75.3% | 49.6% | 45.4% | 40.5% | 39.6% | 34.5% | 34.6%
CCCCC(=O)O[C@]1(C(=O)CO)[C@H](C)C[C@H]2[C@@H]3CCC4=CC(=O)C=C[C@]4(C)[C@@]3(F)[C@@H](O)C[C@@]21C | 122% | 129% | 124% | 135% | 131% | 124% | 127% | 122% | 123% | 123% | 116% |  |  |  |  |  |  |  |  |  |  |  |  |  |  |  |  |  |  |  |  |  | 
CC(C)(O)CC[C@@H](O)[C@](C)(O)[C@H]1CC[C@@]2(O)C/3=C/C(=O)[C@@H]4C[C@@H](O)[C@@H](O)C[C@]4(C)[C@H]3CC[C@]12C | 111% | 98.6% | 110% | 86.8% | 84.6% | 98.5% | 98% | 103% | 87.4% | 94.9% | 81.7% | 87.9% | 97.3% | 86.9% | 83.8% | 93.2% | 91.9% | 91.2% | 88.6% | 80% | 84.2% | 83.1% | 108% | 110% | 108% | 95.2% | 105% | 91.6% | 105% | 90% | 86.2% | 88.1% | 94.4%
ClC1=CC=C(C=C1)C(C#N)C2=C(Cl)C=C(C=C2Cl)N3\N=C/C(=O)NC3=O (centres undefined) | 82.4% | 101% | 99.5% | 111% | 112% | 103% | 125% | 104% | 97.8% | 102% | 107% | 100% | 93.4% | 109% | 102% | 93.1% | 94.6% | 114% | 107% | 106% | 100% | 104% | 80.1% | 92.6% | 86.5% | 95.3% | 87.1% | 110% | 99.6% | 96.7% | 94.6% | 103% | 98.4%
C[C@@H]1COCCN1c1cc(C2([S@+](C)(=N)[O-])CC2)nc(-c2ccnc3[nH]ccc23)n1 | 94.9% | 116% | 119% | 121% | 127% | 120% | 91.9% | 67.7% | 34.5% | 27.6% | 24.6% | 102% | 114% | 114% | 119% | 115% | 130% | 114% | 103% | 59.4% | 24.5% | 17.9% | 97.6% | 107% | 114% | 119% | 122% | 120% | 116% | 98.2% | 39% | 22% | 22.3%
CN(C)C1CCN(C(=O)c2ccc(NC(=O)Nc3nc(N4CCOCC4)nc(N4CCOCC4)n3)cc2)CC1 | 85.5% | 100% | 80% | 67.8% | 60.6% | 52.9% | 43.1% | 44.9% | 40.5% | 28.7% | 25.1% | 84.8% | 89.3% | 90.5% | 84.5% | 64.9% | 63.6% | 52.7% | 49% | 43.4% | 36.5% | 18.2% | 84.9% | 83.8% | 83.9% | 70.9% | 60.8% | 53.3% | 45.8% | 44.4% | 39.6% | 38% | 22.8%
COC(=O)Nc1cc(Nc2cc(NC3CC3)c3ncc(C#N)n3n2)c(Cl)c(N2CCN(C)CC2)c1 | 117% | 114% | 104% | 107% | 108% | 112% | 93.7% | 86.7% | 64.5% | 45.6% | 4.67% | 88.7% | 112% | 108% | 110% | 93.3% | 110% | 84.5% | 89.7% | 57.6% | 30.1% | 4.34% | 104% | 98.2% | 99.4% | 94.3% | 93% | 106% | 85.3% | 66.9% | 45.1% | 34.5% | 3.22%
CC(C)c1nc(CN(C)C(=O)N[C@H](C(=O)N[C@@H](Cc2ccccc2)C[C@H](O)[C@H](Cc2ccccc2)NC(=O)OCc2cncs2)C(C)C)cs1 | 92.4% | 107% | 100% | 95.3% | 89.9% | 88.9% | 98.5% | 70.5% | 94.4% | 80.7% | 74.3% | 75.3% | 75.3% | 78.5% | 81.2% | 77.4% | 80.2% | 77.6% | 79.3% | 79.9% | 75.7% | 79% | 86.5% | 80.7% | 93% | 90.6% | 92.8% | 83.2% | 81.7% | 77.1% | 84.9% | 79.2% | 77.1%
C[C@](Cc1c[nH]c2ccccc12)(NC(=O)OC1C2CC3CC(C2)CC1C3)C(=O)NC[C@H](NC(=O)CCC(=O)O)c1ccccc1 (some centres undefined) | 123% | 94% | 130% | 135% | 148% | 142% | 134% | 145% | 157% | 154% | 141% | 114% | 128% | 120% | 126% | 120% | 127% | 125% | 126% | 151% | 153% | 147% | 106% | 123% | 120% | 132% | 132% | 133% | 153% | 129% | 139% | 147% | 153%
C[C@]12CCC(=O)C=C1CC[C@@H]1[C@@H]2[C@@H](O)C[C@@]2(C)[C@H]1CC[C@]2(O)C(=O)CO | 99% | 109% | 121% | 127% | 117% | 125% | 120% | 115% | 102% | 121% | 109% | 110% | 98.3% | 108% | 112% | 100% | 129% | 129% | 111% | 111% | 105% | 120% | 119% | 111% | 106% | 118% | 116% | 113% | 130% | 125% | 118% | 116% | 127%
Nc1ncnc2c1ncn2[C@@H]1O[C@@H](CO)[C@H](O)[C@@H]1O | 94.2% | 125% | 117% | 140% | 142% | 134% | 144% | 156% | 139% | 140% | 136% |  |  |  |  |  |  |  |  |  |  |  | 122% | 121% | 122% | 127% | 135% | 136% | 133% | 135% | 127% | 155% | 137%
Cc1nn(Cc2ccccc2Cl)c(C)c1CN(C)CC(O)COc1ccc(Cl)cc1 (centres undefined) | 106% | 101% | 98% | 97.7% | 99.7% | 103% | 108% | 106% | 85.8% | 83.1% | 22.5% | 100% | 92.9% | 89.1% | 90.4% | 90.5% | 94.1% | 99.5% | 93.7% | 90.8% | 85.6% | 34.5% | 94.7% | 101% | 110% | 101% | 106% | 99.4% | 100% | 94.4% | 83.9% | 75.3% | 27.2%
